Assay results taken from article PMC11231141, “Ube3a unsilencer for the potential treatment of Angelman syndrome” (Nature Communications, 2024).

Key:
[1] = tested on: UBE3A mRNA
From the text: The specificity of the amplification products was verified by melting curve analysis.

[2] = cytotoxicity (% viable DAPI/NeuN neurons vs DMSO) in mouse primary neurons; format: cell-based; conditions: primary cortical neurons from E15.5 mouse embryos, mean ± SEM, n = 3
Protocol: Immunofluorescence for high-content imaging analysis was performed as previously described with slight modifications. Following drug treatment at DIV7, primary neurons were fixed at DIV10 with 4% paraformaldehyde in PBS at room temperature (RT) for 10 min. After three brief washes in PBS, neurons were permeabilized with PBS/1% Triton-X-100 at RT for 10 min, followed by blocking with PBS including 5% normal goat serum and 0.2% Triton-X-100 (NGST) at RT. […] All acquired images were analyzed by CellProfiler[48]. The mean GFP signal from each drug-treated well was normalized to the average mean GFP signal from DMSO-treated neurons. […] Fluorescent images were acquired using a Nikon Ti2 eclipse fluorescence microscope (Nikon Instruments Inc.) and analyzed using Nikon NIS-Elements software (Nikon Instruments Inc.). Antibody-enhanced UBE3A-YFP fluorescence intensities were determined from DAPI and NeuN double-positive neurons in drug-treated wells and normalized to neurons in DMSO-treated wells. The cytotoxicity of a compound was determined by calculating the percentage of neurons (DAPI and NeuN double-positive cells) alive in drug-treated wells compared to the DMSO-treated wells. For determining the effectiveness of unsilencing, the percent neurons expressing GFP signal in neurons (DAPI and NeuN double-positive cells) in drug-treated wells was thresholded such that the percent GFP positive neurons in DMSO-treated wells was set to ~5%. Concentrations where more than 10% of neurons were dead compared to DMSO-treated wells were manually removed and the last included data point was set as a maximum efficacy. Sigmoidal curve fitting for the dose-response analysis was performed using GraphPad Prism software version 8.0 (GraphPad Software).

SMILES | UBE3A mRNA levels vs DMSO [1] | CC50 at 72 h [2]
C[C@H](C(=O)Nc1cc(C2CC2)[nH]n1)c1ccc(N2CCCC2=O)cc1 [(S)-PHA533533] | does not affect | 
CC[C@@]1(O)C(=O)OCc2c1cc1n(c2=O)Cc2cc3c(CN(C)C)c(O)ccc3nc2-1 [Topotecan, reference compound] |  | 2130 ± 620 nM
